Measured values: paper PMC6017881, “Probing the Influence of Linker Length and Flexibility in the Design and Synthesis of New Trehalase Inhibitors” (Molecules : A Journal of Synthetic Chemistry and Natural …, 2018)
“Also recorded” adds a separate entry of the source. Read-outs that look alike come from different tables or passages of the source.

Legend:
[1] = molecular target: T1, porcine kidney trehalase (Sus scrofa, UniProt I3LIR5); assay: Trehalase inhibition, coupled assay with glucose-6-phosphate dehydrogenase and hexokinase (dose-response); format: biochemical; conditions: 2.5 mM trehalose (close to Km), 30 °C; read-out: IC50 towards porcine trehalase
T1 construct: porcine kidney trehalase (purchased from Sigma-Aldrich); purchased Sigma-Aldrich; host or cells: porcine kidney
T1 sequence (I3LIR5 24-583): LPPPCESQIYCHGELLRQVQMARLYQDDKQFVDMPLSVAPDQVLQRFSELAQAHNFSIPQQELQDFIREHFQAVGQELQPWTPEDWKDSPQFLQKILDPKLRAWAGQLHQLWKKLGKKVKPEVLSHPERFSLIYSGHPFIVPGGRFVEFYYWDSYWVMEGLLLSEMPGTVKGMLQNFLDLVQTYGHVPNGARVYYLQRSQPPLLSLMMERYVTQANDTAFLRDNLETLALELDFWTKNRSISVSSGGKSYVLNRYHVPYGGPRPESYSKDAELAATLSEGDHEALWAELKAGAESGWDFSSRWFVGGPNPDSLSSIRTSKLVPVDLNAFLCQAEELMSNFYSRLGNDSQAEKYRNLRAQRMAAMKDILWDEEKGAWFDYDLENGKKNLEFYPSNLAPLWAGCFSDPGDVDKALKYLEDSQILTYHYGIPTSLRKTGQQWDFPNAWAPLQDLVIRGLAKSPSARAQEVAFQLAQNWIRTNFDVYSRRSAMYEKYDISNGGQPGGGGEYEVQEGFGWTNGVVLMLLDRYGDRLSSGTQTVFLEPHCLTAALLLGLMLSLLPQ
Method: (§1) Compounds were tested for their inhibitory activity against insect trehalase of midge larvae of C. riparius, a good model for biochemical studies, and porcine kidney trehalase (purchased from Sigma-Aldrich, St. Louis, MO, USA) as the mammalian counterpart.
(§2) Trehalase activity was measured through a coupled assay with glucose-6-phosphate dehydrogenase and hexokinase according to Wegener at al. To examine the potential of each compound as a trehalase inhibitor, dose-response curves were established to determine the IC50 values. Experiments were performed at a fixed substrate concentration close to the Km value (0.5 mM for C. riparius and 2.5 mM for porcine trehalase), in the presence of increasing inhibitor concentrations.Initial rates as a function of inhibitor concentration were fitted to the following equation:(1) vi/v=1/1+([I]/IC50)^n where vi and v are the initial rate in the presence and in the absence of inhibitor, respectively, [I] is the inhibitor concentration, IC50 is the inhibitor concentration producing half-maximal inhibition, and n is the Hill coefficient.
(§3) All enzyme assays were performed in triplicates at 30 °C by using sample volumes varying from 5 to 20 μL in 1 mL test and using a Cary3 UV/Vis Spectrophotometer. Enzyme activities were analyzed by Cary Win UV application software for Windows XP.

[2] = molecular target: T2, C. riparius trehalase (Chironomus riparius, UniProt J7EJ73); assay: Inhibition kinetics at varying trehalose concentration (Lineweaver-Burk plot and replots); format: biochemical; conditions: varying trehalose concentration at two inhibitor concentrations
Method: To evaluate the inhibitory pattern we performed kinetics measurements by varying the trehalose concentration, at two different concentrations of compounds 9α and 9β.
Kinetic experiments were performed using C. riparius trehalase, measuring enzymatic activity at different trehalose concentrations from 0.05 to 20 mM in the presence of fixed inhibitor concentrations (5–10 µM for the compound 9α and 0.5–1 µM for the compound 9β). Kinetic parameters were calculated using a multiparameter, iterative, non-linear regression program based on the Marquardt-Levenberg algorithm (Sigma Plot, Jandel, CA, USA). Data are given ± S.D. of three independent experiments.
as §3

[3] = molecular target: T2, C. riparius trehalase; assay: Trehalase inhibition, coupled assay with glucose-6-phosphate dehydrogenase and hexokinase (dose-response); format: biochemical
Method: as §1, §2, §3

[4] = molecular target: T1, porcine kidney trehalase; set-up: method as in PMID 25407551; conditions: value taken from the literature; ref [7]; read-out: IC50 towards porcine trehalase; cited from earlier work

T2 sequence (J7EJ73 entry or part of it): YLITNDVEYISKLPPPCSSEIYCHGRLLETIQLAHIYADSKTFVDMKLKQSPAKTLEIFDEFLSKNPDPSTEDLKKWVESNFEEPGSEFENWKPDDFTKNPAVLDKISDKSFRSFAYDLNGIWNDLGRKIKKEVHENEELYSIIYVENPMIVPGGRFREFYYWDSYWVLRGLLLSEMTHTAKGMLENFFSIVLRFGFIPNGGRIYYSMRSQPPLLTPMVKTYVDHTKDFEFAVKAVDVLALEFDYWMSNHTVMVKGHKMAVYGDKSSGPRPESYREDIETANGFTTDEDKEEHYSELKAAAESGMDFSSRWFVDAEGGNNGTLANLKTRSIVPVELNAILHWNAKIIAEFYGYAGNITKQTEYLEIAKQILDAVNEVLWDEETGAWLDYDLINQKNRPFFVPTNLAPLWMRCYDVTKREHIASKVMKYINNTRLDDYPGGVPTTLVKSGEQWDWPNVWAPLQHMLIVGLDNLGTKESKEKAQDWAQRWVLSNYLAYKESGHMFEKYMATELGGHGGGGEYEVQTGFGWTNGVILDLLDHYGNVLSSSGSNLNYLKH

Compound: OC[C@@H]1[C@@H](O)[C@H](O)CN1CCO[C@H]1O[C@H](CO)[C@@H](O)[C@H](O)[C@H]1O [Compound 9α]
- IC50 [1]: 27.6 ± 5.35 µM
- Inhibitory pattern (inhibition type) [2]: pure competitive

Compound: OCC1OC(OCCCCN2CC(O)C(O)C2CO)C(O)C(O)C1O (stereo not drawn) [Compound 11]
- Inhibitory activity towards C. riparius trehalase (in words) [3]: loose completely their inhibitory properties; also recorded: completely inactive

Compound: OC[C@@H]1[C@@H](O)[C@H](O)[C@H]2[C@H](O)[C@H](O)CN21 [Compound 6, (-)-uniflorine A]
- IC50 [4]: > 1000 µM

Compound: OC[C@@H]1[C@@H](O)[C@H](O)[C@H]2C[C@H](O[C@H]3O[C@H](CO)[C@@H](O)[C@H](O)[C@H]3O)CN12 [Compound 8, (1R,2R,3R,6S,7aR)-1,2-dihydroxy-3-(hydroxymethyl)hexahydro-1H-pyrrolizin-6-yl-α-hexopyranoside]
- Inhibitory activity towards C. riparius trehalase (in words) [3]: active only in the μM range
- IC50 [1]: 191 ± 34.1 µM

Compound: OC[C@@H]1[C@@H](O)[C@H](O)[C@H]2C[C@@H](O[C@H]3O[C@H](CO)[C@@H](O)[C@H](O)[C@H]3O)CN12 [Compound 4, 7-deoxycasuarine glucoside]
- IC50 [4]: 0.479 ± 0.045 µM

Compound: OC[C@@H]1[C@@H](O)[C@H](O)CN1CCO[C@@H]1O[C@H](CO)[C@@H](O)[C@H](O)[C@H]1O [Compound 9β]
- IC50 [1]: 5.84 ± 0.26 µM
- Inhibitory pattern (inhibition type) [2]: pure competitive

Compound: OC[C@@H]1[C@@H](O)[C@H](O)CN1CCOC1O[C@H](CO)[C@@H](O)[C@H](O)[C@H]1O (stereo partly drawn) [9α,β]
- IC50 [1]: 7.67 ± 3.91 µM

Compound: OC[C@@H]1[C@@H](O)[C@H](O)[C@H]2C[C@H](O)CN12 [Compound 7, 7-deoxy-uniflorine A]
- IC50 [4]: > 1000 µM

Compound: OCC1OC(OCCCN2CC(O)C(O)C2CO)C(O)C(O)C1O (stereo not drawn) [Compound 10]
- Inhibitory activity towards C. riparius trehalase (in words) [3]: loose completely their inhibitory properties; also recorded: completely inactive
